# Measured values from patent US20090305994A1, “Compounds Modulating Vegf Receptor and Uses Thereof” (priority 2005, published 2009).
# No end group written: not given here.
# T1: Flt-1 (Bos taurus, UniProt F1MDD9)
# T1 construct: we immunoprecipitated total KDR and Flt-1 from BAEC whole extracts; endogenous in cells; host or cells: BAEC (bovine aorta endothelial cells, SV40-immortalized)
# T1 sequence (F1MDD9 1-1251): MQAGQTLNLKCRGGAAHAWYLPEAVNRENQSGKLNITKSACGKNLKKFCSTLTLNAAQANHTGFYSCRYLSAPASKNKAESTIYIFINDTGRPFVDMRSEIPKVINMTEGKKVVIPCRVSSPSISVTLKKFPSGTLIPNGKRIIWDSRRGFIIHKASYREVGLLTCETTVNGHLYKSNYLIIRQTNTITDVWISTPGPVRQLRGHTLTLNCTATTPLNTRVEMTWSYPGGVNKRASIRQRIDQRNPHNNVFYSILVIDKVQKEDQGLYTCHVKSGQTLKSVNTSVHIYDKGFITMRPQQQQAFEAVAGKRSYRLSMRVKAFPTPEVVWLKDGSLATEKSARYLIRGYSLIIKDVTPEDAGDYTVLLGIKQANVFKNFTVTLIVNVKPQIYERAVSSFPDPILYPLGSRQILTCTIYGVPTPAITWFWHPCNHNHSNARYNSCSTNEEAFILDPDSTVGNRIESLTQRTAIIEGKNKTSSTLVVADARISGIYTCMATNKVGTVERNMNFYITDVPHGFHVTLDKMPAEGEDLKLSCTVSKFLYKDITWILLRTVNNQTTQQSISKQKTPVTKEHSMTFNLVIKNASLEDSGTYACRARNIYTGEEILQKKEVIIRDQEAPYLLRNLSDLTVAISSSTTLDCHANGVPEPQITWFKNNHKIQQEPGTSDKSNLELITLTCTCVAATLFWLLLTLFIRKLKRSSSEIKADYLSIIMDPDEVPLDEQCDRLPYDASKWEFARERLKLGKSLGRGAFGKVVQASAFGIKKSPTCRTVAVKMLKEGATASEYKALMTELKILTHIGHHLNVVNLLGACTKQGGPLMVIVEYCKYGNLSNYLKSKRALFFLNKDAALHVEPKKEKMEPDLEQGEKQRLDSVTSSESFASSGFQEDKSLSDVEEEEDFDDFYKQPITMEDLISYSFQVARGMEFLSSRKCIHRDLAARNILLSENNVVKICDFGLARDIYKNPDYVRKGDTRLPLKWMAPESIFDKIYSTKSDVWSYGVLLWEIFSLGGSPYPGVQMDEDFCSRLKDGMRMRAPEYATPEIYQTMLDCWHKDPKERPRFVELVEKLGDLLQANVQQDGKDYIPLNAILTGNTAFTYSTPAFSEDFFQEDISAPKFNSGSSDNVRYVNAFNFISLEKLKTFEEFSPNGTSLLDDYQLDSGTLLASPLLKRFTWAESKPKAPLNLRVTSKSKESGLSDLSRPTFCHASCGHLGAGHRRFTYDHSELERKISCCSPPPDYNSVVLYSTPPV
# Columns and labels:
# ERK1/2 kinase = assay: VEGF-induced activation of ERK kinase in HUVEC (western blot); assay type: cell-based, human; conditions: VEGF 20 ng/ml plus MA 100 ng/ml, 30 min
# Procedure: (§1) (a) HUVE cells (1×10^4/cm2) were incubated whit VEGF (20 ng/ml) in the absence or presence of MA peptide (100 ng/ml), in duplicates, for 30 min. Then cell lysates were obtained and analysed in Western blot with anti-phospho-ERK antibody. b) HUVE cells (1×10^4/cm2) were incubated with VEGF (20 ng/ml) in the absence or presence of MA peptide (100 ng/ml), in triplicates, for 24 h, at 37° C. in a 5% CO2 atmosphere. Then FITC-Annexin V binding was analyzed by flow cytometry.
# Western blotting. Cell total protein lysates were prepared in sample buffer (2% sodium-dodecyl-sulphate, 10% glycerol, 2% mercaptoethanol and 60 mM Tris-HCl pH 6.8 in demineralized water) on ice. Lysates (25 μg) were run on 12% SDS-PAGE gels and electrophoretically transferred to nitrocellulose. Nitrocellulose blots were blocked with 5% BSA in Tris Buffer Saline Tween-20 (TBST) buffer [20 mM Tris-HCl (pH 7.4), 500 mM NaCl, and 0.01% Tween 20] and incubated with primary antibody in TBST-5% BSA overnight at 4° C. Immunoreactivity was detected by sequential incubation with horseradish peroxidase-conjugated secondary antibody and enhanced chemiluminescence reagents following standard protocols (Amersham Bioscience, UK).
# Inhibition of VEGF-induced activation of ERK kinase by MA peptide. […] We therefore investigated whether MA peptide binding to the cells could block ERK activation by VEGF.
# HUVEC [1] = assay: FITC-Annexin V binding of HUVEC by flow cytometry; assay type: cell-based, human; conditions: HUVEC 24 h, VEGF 20 ng/ml plus MA peptide 100 ng/ml
# Procedure: as §1
# (§2) Fluorescence—Cells (3×105) were incubated with saturating amounts of FITC-conjugated and the other indicated reagents, 5 min at 4° C. in the dark. After washing with PBS, the cells were resuspended in PBS and analyzed with a FACScan (Becton Dickinson) flow cytometer.
# Effect of MA peptide on the appearance of annexin V+ cells in cultures with VEGF. Apoptotic cells externalize phosphatidylserine, that is bound by annexin V (Steensma D P, et al., Methods Mol. Med. 2003; 85: 323-32).
# HUVEC [2] = assay: Analysis of caspase 3 activity in HUVEC deprived of FBS; assay type: cell-based, human; conditions: VEGF 20 ng/ml plus peptide 20 ng/ml, 4 h
# Procedure: HUVE cells (1×10^4/cm2) were incubated in medium without FBS, in the absence or presence of VEGF (20 ng/ml) and QK (5 ng/ml), at 37° C. in a 5% CO2 atmosphere. After 4 h, caspase 3 activity was determined. Results are expressed as mean values of triplicates.
# HUVE cells (1×10^4/cm2) were incubated in medium without FBS, in the absence or presence of VEGF (20 ng/ml) and the indicated peptides (20 ng/ml), at 37° C. in a 5% CO2 atmosphere. After 4 h, caspase 3 activity was determined. Results are expressed as mean values of triplicates.
# (§3) Analysis of caspase 3 activity—Cells (2×104) were lysed in a buffer containing Hepes 50 mM, DTT 1 mM, EDTA 0.1 mM, NP-40 0.1%, CHAPS 0.1% and protein quantitation determined. Protein aliquots (20 μg) were incubated with 20 μM Ac-DEVD-AMC (Pharmingen, San Diego, Calif.) in a buffer containing Hepes 50 mM, DTT 1 mM, EDTA 0.1 mM, NP-40 0.1%, CHAPS 0.1%, at 37° C. for 3 h. Caspase 3 activity was determined in the cytosolic extracts by analysing the release of 7-amino-4-methylcoumarin (AMC) from N-acetyl-DEVD-AMC (Thornberry N A, et al. Nature 1992; 356:768-74); the release of AMC was monitored in a spectrofluorometer with an excitation wavelength of 380 nm and emission wavelength of 440 nm.
# as §3, with “356: 768-74);” for “356:768-74);”
# HUVEC cells = assay: Binding of fluorescein-conjugated MA peptide to HUVEC cells (flow cytometry); design: species or system human
# Procedure: HUVE cells (1×10^4/cm2) were incubated with 500 nM MA peptide conjugated with fluorescein and competed with increasing amount of VEGF at 30 min at 4° C. in the dark. Then, cell fluorescence was analyzed by flow cytometry.
# as §2
# Binding of MA peptide to HUVEC cells. To verify that MA peptide bound to HUVEC cells, we incubated the cells with MA or a scrambled peptide conjugated with fluorescein and analyze the binding by FACS.
# WKY rats = assay: Ischemic hindlimb model, digital angiographies and blood flow determination; assay type: in vivo, rat; conditions: 14 days
# KDR = target: T2, KDR (Bos taurus, UniProt A0AAA9SPC9); assay: KDR activation (immunoprecipitation, phospho-tyrosine western blot) in BAEC; assay type: cell-based, bovine; conditions: 15 minutes of exposure
# T2 construct: we immunoprecipitated total KDR and Flt-1 from BAEC whole extracts; endogenous in cells; host or cells: BAEC (bovine aorta endothelial cells, SV40-immortalized)
# T2 sequence (A0AAA9SPC9 20-1356): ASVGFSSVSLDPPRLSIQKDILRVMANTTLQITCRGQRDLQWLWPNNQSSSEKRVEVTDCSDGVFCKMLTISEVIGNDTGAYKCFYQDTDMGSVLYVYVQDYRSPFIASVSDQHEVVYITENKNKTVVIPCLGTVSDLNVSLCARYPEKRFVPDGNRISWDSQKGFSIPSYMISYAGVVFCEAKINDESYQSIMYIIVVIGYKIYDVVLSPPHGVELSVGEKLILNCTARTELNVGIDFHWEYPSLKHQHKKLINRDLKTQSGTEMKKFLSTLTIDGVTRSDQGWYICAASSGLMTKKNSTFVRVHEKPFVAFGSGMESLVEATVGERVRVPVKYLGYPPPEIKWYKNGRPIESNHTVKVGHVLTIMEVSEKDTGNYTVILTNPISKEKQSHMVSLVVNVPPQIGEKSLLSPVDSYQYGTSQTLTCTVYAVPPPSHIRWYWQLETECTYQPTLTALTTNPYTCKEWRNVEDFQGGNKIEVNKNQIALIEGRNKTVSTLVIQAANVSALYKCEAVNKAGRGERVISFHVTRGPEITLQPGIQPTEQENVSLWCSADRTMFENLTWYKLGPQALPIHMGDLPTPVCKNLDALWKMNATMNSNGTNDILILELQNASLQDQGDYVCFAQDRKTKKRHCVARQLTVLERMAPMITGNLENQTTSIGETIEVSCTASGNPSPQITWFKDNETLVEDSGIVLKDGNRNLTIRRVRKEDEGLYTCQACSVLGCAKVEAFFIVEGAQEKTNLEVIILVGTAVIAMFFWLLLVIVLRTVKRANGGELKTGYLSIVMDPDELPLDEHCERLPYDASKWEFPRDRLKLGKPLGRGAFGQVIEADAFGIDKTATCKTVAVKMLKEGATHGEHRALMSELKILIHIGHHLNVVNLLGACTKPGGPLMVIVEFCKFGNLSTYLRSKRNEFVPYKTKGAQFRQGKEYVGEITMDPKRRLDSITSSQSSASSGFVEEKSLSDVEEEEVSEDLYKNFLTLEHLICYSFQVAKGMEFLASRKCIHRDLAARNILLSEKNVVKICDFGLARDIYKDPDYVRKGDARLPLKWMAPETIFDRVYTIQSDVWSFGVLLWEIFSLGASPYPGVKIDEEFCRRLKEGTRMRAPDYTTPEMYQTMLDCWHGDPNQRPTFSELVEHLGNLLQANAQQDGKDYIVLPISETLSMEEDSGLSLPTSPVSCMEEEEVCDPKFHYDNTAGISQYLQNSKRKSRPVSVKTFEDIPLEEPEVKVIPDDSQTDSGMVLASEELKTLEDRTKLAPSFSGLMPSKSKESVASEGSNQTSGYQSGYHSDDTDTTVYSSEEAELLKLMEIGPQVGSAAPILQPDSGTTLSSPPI
# Procedure: (§4) VEGF receptors binding and activation. a) VEGF competitive binding on BAEC. 1 μg of membrane protein was plated with QK and [^125I]-VEGF (500000 cpm, 10^−10 M). b) KDR activation. After stimulation total KDR was immunoprecipitated from a whole-cell protein extracts and phospho-tyrosine was visualized by a specific antibody, anti-rabbit HRP-conjugated secondary antibody and standard chemiluminescence. c) Flt-1 activation. After stimulation total Flt-1 was immunoprecipitated from a whole-cell protein extracts and phospho-tyrosine was visualized by specific antibody, anti-rabbit HRP-conjugated secondary antibody and standard chemiluminescence.
# (§5) Western blot. Cells were plated on six-well dishes and serum starved overnight. On the next day, cells were treated with different amount of peptide in absence or in presence of VEGF165 for 15 minutes at 37° C. and then dissolved in RIPA-SDS buffer (50 mM Tris-HCl (pH 7.5), 150 mM NaCl, 1% NP-40, 0.25% deoxycholate, 9.4 mg/50 ml sodium orthovanadate, […]). In some experiments, total KDR and Flt-1 were immunoprecipitated from an equal amount of whole-cell protein extracts using protein A/G agarose beads conjugated with antibodies raised against total KDR or Flt-1 (R&D). Proteins from whole-cell extracts or immunocomplexes were resolved by PAGE and transferred to nitrocellulose. […]
# RB = RB phosphorylation (western blot); assay type: cell-based, bovine; conditions: 12 and 18 hours; QK 10^-6 M, VEGF165 100 ng/ml, VEGF 15 10^-6 M
# Procedure: Effect of QK on cell proliferation. a) DNA synthesis. BAEC were incubated in DMEM with [^3H]-thymidine and QK in absence or in presence of VEGF165 (100 ng/ml). After 24 hours cells were fixed and lysed. Scintillation liquid was added and [^3H]-thymidine incorporation was evaluated. b) Cell proliferation. BAEC were stimulated with the indicated amount of QK in absence or in presence of VEGF165 (100 ng/ml). Cell number was determined at 24 hours after stimulation. c) RB phosphorylation. p-RB was evaluated at 12 and 18 hours after stimulation with QK (10^-6M), VEGF165 (100 ng/ml) and VEGF 15 (10^−6 M).
# Cells proliferation assay. Cells were seeded at a density of 10000 per well in six well plates, serum starved overnight and then stimulated with QK (10-12 to 10^−6 M) in absence or in presence of VEGF165. Cell number was determined at 24 hours after stimulation. The p-RB, was evaluated by western blot 12 and 18 hours after stimulation with QK (10^−6 M), VEGF165 and VEGF 15 (10^−6 M).
# Flt-1 = target: T1, Flt-1; assay: Flt-1 activation (immunoprecipitation, phospho-tyrosine western blot) in BAEC; assay type: cell-based, bovine; conditions: 15 minutes of exposure
# Procedure: as §4, §5
# [3] = target: VEGF receptors on bovine aorta endothelial cell (BAEC) membranes; assay: displacement of [125I]-VEGF from BAEC membranes (1 ug membrane protein) by QK at 10^-13 to 10^-8 M, gamma counter
molecule,measurement,setting,value
KLTWMELYQLAYKGI (KLTWMELYQLAYKGI-NH2) [MA],levels of phosphorylated ERK1/2 kinase with VEGF in the presence of peptide,ERK1/2 kinase,highly reduced
same,annexin V+ cells,HUVEC [1],> 22%
same,effect on VEGF anti-apoptotic activity (caspase 3),HUVEC [2],abolished
same,binding to HUVEC cells,"HUVEC cells; fluorescein-conjugated peptide, FACS",specifically bound to the cells in a dose-dependent manner
KLTWMELYQLKYKGI (KLTWMELYQLKYKGI-NH2) [MK],effect on VEGF anti-apoptotic activity (caspase 3),HUVEC [2],partially inhibited the effect of the growth factor
"VEGF165: Vascular Endothelial Growth Factor, most abundant isoform, 45 KDa glycoprotein (Alexis), positive control in Example 1",BEADS Ischemic to non ischemic,"WKY rats; dyed beads dilution, muscle ratio, infusion 10^-7 M",0.97 ± 0.12
same,ANGIOGRAPHY Number of TFC,"WKY rats; ischemic hindlimb, chronic intrafemoral artery infusion 10^-7 M",18 ± 2
same,phospho-KDR levels,KDR,caused the reduction in the levels of phospho-KDR at the membrane
same,phosphorylation of the cyclin RB,RB,enhanced phosphorylation of the cyclin RB
same,Flt-1 phosphorylation,Flt-1,increases Flt-1 phosphorylation
Ac-KLTWQELYQLKYKGI-NH2 [QK peptide (SEQ ID No.8)],Kd,[3],0.316 nM
"human recombinant VEGF: Human recombinant VEGF obtained from R&D, used in Example 2 on HUVEC (protein) APMAEGGGQNHHEVVKFMDVYQRSYCHPIETLVDIFQEYPDEIEYIFKPSCVPLMRCGGCCNDEGLECVPTEESNITMQIMRIKPHQGQHIGEMSFLQHNKCECRPKKDRARQENPCGPCSERRKHLFVQDPQTCKCSCKNTDSRCKARQLELNERTCRCDKPRR",competition with fluorescein-conjugated MA peptide on HUVEC,"HUVEC cells; 500 nM MA peptide, increasing amount of VEGF, 4° C.",appeared to compete with MA peptide
